Data published in ChEMBL document CHEMBL1201862, “PubChem BioAssay data set” (2004).
Active and inactive are the calls of the source.

How the values were obtained:
Vero [1] = experiment: cells; type: functional; conditions: Chlorocebus sabaeus
Vero [2] = experiment: cells; type: functional, cell-based; conditions: Chlorocebus sabaeus
Cytochrome P450 3A4 = Cytochrome P450 3A4 (Homo sapiens, UniProt P08684);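 note: CYP3A4 tested as one member of a cytochrome P450 panel screen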
[3] = biological target: T1, DNA dC->dU-editing enzyme APOBEC-3G (Homo sapiens, UniProt Q9HC16); experiment: Dose Response confirmation of small molecule APOBEC3G DNA Deaminase Inhibitors via a fluorescence-based single-stranded DNA deaminase assay. [Related pubchem assays (depositor defined):AID493012, AID493028]; type: functional
T1 sequence (Q9HC16 whole entry): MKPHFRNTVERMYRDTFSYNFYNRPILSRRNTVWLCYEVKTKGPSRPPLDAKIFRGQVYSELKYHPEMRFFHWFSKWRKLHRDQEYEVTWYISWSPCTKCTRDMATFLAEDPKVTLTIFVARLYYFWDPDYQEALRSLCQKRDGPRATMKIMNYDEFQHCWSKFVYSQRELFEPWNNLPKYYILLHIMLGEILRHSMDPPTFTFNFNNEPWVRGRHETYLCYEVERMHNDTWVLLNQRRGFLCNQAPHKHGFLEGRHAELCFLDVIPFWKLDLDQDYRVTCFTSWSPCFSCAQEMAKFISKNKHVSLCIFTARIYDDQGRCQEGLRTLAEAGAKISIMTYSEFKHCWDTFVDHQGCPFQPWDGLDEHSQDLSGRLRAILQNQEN

[4] = biological target: T2, C-C chemokine receptor type 6 (Homo sapiens, UniProt P51684); experiment: antagonism of CCR6 beta-arrestin recruitment – cell-based, luminescent beta-arrestin readout, dose response (AID 504728); type: functional
T2 sequence (P51684 whole entry): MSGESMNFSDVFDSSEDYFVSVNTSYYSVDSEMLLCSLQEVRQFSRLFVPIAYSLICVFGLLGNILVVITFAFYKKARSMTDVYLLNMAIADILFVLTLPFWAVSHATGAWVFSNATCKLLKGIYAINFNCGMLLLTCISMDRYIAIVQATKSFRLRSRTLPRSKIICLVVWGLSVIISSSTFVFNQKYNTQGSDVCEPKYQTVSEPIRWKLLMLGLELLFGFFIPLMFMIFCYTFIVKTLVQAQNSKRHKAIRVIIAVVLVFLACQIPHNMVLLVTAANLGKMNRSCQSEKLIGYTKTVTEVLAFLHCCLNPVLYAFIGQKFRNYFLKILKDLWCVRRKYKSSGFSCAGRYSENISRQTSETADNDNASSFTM

Beta-galactosidase = Beta-galactosidase (Escherichia coli, UniProt Q8VNN2); experiment: detection-enzyme interference by beta-gal modulators – biochemical, E. coli enzyme, set 3, artefact control for CCR6 antagonist project, dose response (AID 504712); type: functional
Chain of Beta-galactosidase (Q8VNN2 whole entry): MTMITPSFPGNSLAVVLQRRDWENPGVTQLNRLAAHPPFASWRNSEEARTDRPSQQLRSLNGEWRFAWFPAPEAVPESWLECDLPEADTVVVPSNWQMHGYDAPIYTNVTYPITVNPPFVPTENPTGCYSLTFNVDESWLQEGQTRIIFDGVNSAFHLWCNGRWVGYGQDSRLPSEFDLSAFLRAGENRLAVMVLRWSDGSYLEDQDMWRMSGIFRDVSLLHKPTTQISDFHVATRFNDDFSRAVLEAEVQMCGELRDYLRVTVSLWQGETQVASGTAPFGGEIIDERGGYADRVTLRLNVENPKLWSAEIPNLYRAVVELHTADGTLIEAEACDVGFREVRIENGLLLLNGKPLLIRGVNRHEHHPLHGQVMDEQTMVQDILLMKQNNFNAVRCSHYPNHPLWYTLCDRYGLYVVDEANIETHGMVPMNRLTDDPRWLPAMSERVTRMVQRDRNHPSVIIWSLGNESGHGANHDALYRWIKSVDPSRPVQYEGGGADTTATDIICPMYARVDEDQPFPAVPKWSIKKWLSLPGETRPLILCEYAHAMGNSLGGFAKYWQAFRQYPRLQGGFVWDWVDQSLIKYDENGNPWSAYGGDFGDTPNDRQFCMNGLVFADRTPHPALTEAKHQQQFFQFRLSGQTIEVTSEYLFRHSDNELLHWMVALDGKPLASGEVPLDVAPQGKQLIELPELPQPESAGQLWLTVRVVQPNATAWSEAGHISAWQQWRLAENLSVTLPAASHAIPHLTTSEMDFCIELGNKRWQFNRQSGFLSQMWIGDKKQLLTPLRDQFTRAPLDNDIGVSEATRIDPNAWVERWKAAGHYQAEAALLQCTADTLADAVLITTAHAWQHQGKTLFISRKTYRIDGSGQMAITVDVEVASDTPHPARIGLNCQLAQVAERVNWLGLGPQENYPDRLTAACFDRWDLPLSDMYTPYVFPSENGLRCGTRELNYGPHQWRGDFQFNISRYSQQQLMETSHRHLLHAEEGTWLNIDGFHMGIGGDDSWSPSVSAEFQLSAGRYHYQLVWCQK

[5] = biological target: T3, Short transient receptor potential channel 4 (Mus musculus, UniProt Q9QUQ5); experiment: block of DAMGO-driven TRPC4 calcium entry – cell-based, HEK293 TRPC4/mu-opioid, Fluo-4 calcium, dose response (AID 434942); type: functional;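 note: potency of inhibitors blocking the TRPC4 calcium response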
T3 sequence (Q9QUQ5 whole entry): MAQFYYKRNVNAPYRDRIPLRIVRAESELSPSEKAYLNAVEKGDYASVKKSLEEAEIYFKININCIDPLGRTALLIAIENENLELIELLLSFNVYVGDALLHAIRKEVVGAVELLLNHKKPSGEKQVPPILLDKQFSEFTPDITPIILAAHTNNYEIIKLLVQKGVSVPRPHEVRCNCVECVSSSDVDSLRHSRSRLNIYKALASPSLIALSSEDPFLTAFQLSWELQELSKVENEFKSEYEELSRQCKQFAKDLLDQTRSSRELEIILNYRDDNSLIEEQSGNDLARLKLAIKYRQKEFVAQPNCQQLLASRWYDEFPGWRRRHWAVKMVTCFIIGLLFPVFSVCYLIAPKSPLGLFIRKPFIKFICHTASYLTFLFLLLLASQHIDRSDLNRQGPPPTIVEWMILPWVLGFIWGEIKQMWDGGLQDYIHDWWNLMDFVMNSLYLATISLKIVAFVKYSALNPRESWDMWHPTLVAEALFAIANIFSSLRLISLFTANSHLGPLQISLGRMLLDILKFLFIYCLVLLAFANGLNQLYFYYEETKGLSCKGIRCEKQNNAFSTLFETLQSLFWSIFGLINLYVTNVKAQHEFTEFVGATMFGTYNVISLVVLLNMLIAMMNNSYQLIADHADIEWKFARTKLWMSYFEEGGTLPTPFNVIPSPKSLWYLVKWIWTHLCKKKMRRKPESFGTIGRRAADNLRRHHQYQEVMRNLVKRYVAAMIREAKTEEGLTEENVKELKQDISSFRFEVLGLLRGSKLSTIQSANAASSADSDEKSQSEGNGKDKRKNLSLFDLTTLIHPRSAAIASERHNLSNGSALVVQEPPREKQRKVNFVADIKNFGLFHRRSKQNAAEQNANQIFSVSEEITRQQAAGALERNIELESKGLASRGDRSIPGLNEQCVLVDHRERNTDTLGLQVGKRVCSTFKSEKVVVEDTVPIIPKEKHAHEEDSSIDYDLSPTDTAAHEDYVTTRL

Coagulation factor XII = biological target: T4, Coagulation factor XII (Homo sapiens, UniProt P00748); type: functional;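 note: activated factor XIIa alpha cleaving a fluorogenic AMC peptide substrate; inhibitor potency from loss of enzyme activity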
T4 sequence (P00748 whole entry): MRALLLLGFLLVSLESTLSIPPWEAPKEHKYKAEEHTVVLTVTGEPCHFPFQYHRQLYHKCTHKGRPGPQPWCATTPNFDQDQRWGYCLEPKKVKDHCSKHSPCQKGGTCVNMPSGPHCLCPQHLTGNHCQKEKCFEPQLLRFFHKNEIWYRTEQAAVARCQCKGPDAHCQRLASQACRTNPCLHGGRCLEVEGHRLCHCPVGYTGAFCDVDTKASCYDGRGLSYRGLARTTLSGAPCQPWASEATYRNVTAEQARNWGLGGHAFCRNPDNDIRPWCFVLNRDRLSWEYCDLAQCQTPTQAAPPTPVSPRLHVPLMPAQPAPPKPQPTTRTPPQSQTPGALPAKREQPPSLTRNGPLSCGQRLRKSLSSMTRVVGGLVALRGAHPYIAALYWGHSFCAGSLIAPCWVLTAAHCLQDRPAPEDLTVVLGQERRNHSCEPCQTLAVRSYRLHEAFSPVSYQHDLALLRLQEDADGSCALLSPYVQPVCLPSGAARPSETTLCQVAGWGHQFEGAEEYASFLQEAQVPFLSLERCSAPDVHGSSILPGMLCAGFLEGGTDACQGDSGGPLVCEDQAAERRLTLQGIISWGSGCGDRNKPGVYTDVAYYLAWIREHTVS

Vero [6] = experiment: mammalian cell viability reduction – secondary assay, cytotoxicity control for West Nile virus antiviral project, dose response (AID 1650); type: functional; conditions: Chlorocebus sabaeus
[7] = biological target: T5, Voltage-gated N-type calcium channel alpha-1B subunit/Amyloid beta A4 precursor protein-binding family A member 1 (Homo sapiens, UniProt Q00975+Q02410); type: protein assay
T5 sequence (Q00975 whole entry): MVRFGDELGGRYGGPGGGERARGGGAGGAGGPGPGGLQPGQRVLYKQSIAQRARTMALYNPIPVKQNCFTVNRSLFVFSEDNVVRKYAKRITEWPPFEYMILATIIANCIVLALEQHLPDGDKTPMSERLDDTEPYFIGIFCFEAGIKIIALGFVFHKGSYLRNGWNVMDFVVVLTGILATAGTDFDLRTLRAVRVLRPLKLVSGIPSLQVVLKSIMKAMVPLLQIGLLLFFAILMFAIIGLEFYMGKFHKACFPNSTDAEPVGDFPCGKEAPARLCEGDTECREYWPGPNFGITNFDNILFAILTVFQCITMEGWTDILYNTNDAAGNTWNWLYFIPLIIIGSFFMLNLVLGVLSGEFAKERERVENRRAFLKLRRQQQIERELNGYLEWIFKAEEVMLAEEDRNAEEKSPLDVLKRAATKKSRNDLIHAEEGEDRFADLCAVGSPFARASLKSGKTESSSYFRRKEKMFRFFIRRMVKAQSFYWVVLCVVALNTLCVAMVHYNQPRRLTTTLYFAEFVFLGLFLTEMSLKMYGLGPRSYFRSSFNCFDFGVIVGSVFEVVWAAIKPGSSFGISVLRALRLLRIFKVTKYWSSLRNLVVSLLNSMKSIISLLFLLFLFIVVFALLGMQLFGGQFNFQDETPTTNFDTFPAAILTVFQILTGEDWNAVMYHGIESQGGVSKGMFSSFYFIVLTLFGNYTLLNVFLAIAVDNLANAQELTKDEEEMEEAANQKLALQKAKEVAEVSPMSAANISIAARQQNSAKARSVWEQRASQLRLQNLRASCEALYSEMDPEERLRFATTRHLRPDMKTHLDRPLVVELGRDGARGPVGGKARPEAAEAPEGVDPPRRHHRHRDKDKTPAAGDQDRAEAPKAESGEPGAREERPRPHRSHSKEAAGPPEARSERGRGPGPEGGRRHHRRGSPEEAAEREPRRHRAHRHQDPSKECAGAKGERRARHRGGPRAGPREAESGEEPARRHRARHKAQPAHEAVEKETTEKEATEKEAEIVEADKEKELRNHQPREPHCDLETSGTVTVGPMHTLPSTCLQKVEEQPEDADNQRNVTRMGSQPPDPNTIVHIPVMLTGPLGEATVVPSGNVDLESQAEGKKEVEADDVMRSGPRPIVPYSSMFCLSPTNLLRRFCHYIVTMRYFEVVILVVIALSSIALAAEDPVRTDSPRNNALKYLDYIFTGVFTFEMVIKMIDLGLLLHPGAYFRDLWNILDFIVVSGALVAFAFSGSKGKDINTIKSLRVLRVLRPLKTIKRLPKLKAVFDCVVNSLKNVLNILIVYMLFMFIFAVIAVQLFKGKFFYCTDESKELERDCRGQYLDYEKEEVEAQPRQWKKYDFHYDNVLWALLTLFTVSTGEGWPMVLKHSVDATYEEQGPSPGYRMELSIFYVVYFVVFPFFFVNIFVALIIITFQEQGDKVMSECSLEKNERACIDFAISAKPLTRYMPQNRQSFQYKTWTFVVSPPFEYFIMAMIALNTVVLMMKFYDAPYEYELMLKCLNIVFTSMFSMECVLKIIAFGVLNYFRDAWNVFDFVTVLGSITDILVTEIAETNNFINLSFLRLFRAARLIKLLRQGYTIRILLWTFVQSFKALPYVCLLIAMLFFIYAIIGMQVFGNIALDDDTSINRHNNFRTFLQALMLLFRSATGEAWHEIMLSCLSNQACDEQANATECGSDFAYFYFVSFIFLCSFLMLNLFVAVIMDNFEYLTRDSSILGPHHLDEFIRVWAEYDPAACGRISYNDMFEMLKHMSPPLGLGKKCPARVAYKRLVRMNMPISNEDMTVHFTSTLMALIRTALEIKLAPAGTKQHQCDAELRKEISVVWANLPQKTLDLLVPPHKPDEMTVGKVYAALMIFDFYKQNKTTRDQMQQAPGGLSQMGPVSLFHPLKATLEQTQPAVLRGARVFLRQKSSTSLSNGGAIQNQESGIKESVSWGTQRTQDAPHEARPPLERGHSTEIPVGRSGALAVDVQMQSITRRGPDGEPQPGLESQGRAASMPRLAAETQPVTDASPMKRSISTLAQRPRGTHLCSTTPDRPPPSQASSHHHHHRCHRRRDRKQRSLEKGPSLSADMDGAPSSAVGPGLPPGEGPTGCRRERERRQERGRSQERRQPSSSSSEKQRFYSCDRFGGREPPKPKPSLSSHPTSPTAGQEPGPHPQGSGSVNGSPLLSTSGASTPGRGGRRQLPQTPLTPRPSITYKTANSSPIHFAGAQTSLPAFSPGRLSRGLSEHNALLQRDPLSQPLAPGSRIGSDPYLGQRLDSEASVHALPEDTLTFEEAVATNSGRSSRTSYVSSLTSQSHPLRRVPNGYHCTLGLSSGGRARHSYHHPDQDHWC
T5 sequence (Q02410 whole entry): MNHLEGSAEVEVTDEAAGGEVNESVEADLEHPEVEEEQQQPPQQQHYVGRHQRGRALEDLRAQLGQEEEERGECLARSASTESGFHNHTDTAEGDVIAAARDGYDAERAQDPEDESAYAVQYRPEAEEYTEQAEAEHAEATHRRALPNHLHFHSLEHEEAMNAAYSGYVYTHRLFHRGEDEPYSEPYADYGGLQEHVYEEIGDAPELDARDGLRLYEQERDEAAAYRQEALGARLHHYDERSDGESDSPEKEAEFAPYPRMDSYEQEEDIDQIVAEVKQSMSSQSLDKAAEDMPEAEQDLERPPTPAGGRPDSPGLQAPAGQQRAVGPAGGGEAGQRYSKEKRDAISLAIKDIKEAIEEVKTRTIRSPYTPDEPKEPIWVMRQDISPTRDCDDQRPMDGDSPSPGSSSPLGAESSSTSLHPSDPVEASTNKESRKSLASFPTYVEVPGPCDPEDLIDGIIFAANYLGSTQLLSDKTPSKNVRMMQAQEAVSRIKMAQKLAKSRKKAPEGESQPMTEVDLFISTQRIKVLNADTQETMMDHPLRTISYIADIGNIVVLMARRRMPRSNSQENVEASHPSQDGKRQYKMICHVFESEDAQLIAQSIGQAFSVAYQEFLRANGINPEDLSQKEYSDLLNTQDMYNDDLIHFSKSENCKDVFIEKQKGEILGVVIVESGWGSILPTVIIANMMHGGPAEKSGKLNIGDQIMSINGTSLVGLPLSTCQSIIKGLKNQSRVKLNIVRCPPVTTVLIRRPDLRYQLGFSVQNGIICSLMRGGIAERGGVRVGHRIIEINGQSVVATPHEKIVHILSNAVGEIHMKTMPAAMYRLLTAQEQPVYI

[8] = biological target: T5, Voltage-gated N-type calcium channel alpha-1B subunit/Amyloid beta A4 precursor protein-binding family A member 1; type: protein assay; remark: listed apart in the source
[9] = biological target: NAD-dependent protein deacylase sirtuin-5, mitochondrial (Homo sapiens, UniProt Q9NXA8); experiment: sirtuin-5 deacylation blockers, concentration series – biochemical, fluorescence imaging, cherry-pick, set 5, dose response (AID 720591);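 note: desuccinylation of succinyl peptide AMC substrate read as fluorescence after trypsin release; potency of inhibitors that lower fluorescence and may act on trypsin instead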
[10] = alpha-synuclein stem-loop luciferase translation blockers – H4 neuroglioma cells, luminescence, confirmation (AID 1988); type: functional, cell-based
[11] = viability of PTEN-deleted HCT116 cells – cell-based, HCT116 PTEN knockout, dose response (AID 1047); type: functional;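 note: HCT116 colon tumor cells with PTEN knocked out; cells exposed to compound for 60 hours before readout; potency for loss of cell viability measured by luminescence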
[12] = viability of HCT116 lacking mutant beta-catenin – cell-based, human colon tumor, dose response (AID 1045); type: functional;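 note: HCT116 colon tumor cells with beta catenin knocked out; cells exposed to compound for 60 hours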
[13] = luciferase reporter signal suppression in cells – H4 neuroglioma cells, luminescence, dose response (AID 1990); type: functional, cell-based
[14] = biological target: T6, Ubiquitin-conjugating enzyme E2 N (Homo sapiens, UniProt P61088); type: functional;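 note: Dose-response confirmation in a TR-FRET assay detecting UBC13-driven polyubiquitin chain formation, inhibition measured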
T6 sequence (P61088 whole entry): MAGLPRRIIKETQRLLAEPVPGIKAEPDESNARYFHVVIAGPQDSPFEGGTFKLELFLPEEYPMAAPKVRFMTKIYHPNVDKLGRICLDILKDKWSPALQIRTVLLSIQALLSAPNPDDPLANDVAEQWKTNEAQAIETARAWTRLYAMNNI

[15] = Luminescence Cell-Based Dose Response HTS to Identify Inhibitors of 5'UTR Stem-Loop Driven Prion Protein mRNA Translation in H4 Neuroglioblastoma Cells. [Related pubchem assays: 1827 (Project Summary), 1813 (Primary HTS)]; type: functional
[16] = biological target: Dual specificity tyrosine-phosphorylation-regulated kinase 1A (Rattus norvegicus, UniProt Q63470); type: biochemical, Homo sapiens
[17] = biological target: Glucose-6-phosphate 1-dehydrogenase (Homo sapiens, UniProt P11413); experiment: inhibition of Homo sapiens G6PD, dose series – biochemical, fluorescence, selectivity assay for P. falciparum G6PD inhibitor project, dose response (AID 504792); type: functional
[18] = biological target: Heat shock protein HSP 90-alpha (Homo sapiens, UniProt P07900); type: functional, organism-based
Phospholipase A2 = Phospholipase A2 (Homo sapiens, UniProt P04054); type: functional;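 note: confirmatory dose-response counterscreen on phospholipase A2, testing hits that came from an ultra-high-throughput screen for ATG4B inhibitors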
Cysteine protease ATG4B = biological target: T7, Cysteine protease ATG4B (Homo sapiens, UniProt Q9Y4P1); type: functional;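 note: Fluorescence-based dose-response confirmation assay measuring inhibition of ATG4B activity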
T7 sequence (Q9Y4P1 whole entry): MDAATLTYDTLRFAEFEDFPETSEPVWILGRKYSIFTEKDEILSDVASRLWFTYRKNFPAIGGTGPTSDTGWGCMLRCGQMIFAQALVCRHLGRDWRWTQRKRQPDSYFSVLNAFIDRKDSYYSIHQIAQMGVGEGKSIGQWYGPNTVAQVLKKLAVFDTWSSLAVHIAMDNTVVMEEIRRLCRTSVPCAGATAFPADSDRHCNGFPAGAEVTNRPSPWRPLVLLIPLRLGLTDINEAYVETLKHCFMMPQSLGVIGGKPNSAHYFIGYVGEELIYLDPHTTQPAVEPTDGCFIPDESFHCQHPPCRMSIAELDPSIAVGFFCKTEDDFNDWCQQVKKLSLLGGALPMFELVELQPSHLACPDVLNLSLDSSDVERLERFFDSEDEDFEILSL

HeLa = experiment: ATP-based viability loss in HeLa cells – cell-based, CellTiter-Glo luminescence, cherry-pick samples, cytotoxicity control for MITF activator project, dose response (AID 540259); type: functional; conditions: Homo sapiens
Cytochrome P450 2C9 = Cytochrome P450 2C9 (Homo sapiens, UniProt P11712)
[19] = biological target: DNA dC->dU-editing enzyme APOBEC-3A (Homo sapiens, UniProt P31941); experiment: Dose Response confirmation of small molecule APOBEC3A DNA Deaminase Inhibitors via a fluorescence-based single-stranded DNA deaminase assay. [Related pubchem assays (depositor defined):AID493011, AID493024]; type: functional
[20] = biological target: T1, DNA dC->dU-editing enzyme APOBEC-3G; type: functional

Chain of Cytochrome P450 3A4 (P08684 whole entry): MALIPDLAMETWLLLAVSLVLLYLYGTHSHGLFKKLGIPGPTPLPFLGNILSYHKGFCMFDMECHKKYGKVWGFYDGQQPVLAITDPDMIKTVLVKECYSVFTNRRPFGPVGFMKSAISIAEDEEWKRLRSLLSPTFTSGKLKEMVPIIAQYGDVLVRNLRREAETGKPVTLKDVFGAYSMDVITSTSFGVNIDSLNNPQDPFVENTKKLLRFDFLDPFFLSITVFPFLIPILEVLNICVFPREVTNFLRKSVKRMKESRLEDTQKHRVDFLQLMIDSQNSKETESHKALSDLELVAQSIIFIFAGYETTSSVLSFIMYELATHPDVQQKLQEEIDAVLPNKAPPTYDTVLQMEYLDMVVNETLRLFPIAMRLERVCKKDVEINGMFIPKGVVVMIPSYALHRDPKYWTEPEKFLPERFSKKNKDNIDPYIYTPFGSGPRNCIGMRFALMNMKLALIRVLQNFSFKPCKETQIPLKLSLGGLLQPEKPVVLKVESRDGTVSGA

SMILES: Cc1ccc(Nc2ncc(C(=O)NCCCN3CCN(C)CC3)c3ccccc23)cc1Cl
- CC50 (Vero [1]): > 25 µM (active)
- IC50 (Vero [2]): 22.7 µM (active)

SMILES: CCCn1c(C)c(C(=O)c2ccc3ccccc3c2)c2ccccc21
- AC50 (Cytochrome P450 3A4): inconclusive

SMILES: CCOC(=O)c1c(N)sn(-c2ccccc2C)c1=S
- IC50 [3]: 45.6 µM (active)

SMILES: N#C/C(=C\c1ccc(-c2cccc([N+](=O)[O-])c2)o1)C(=O)Nc1nc(-c2cccs2)cs1
- IC50 [4]: > 66.6 µM (inactive)
- IC50 (Beta-galactosidase): > 66.6 µM (inactive)

SMILES: CC12CCC(C/C1=N/OC(=O)c1cccc([N+](=O)[O-])c1)C2(C)C (configuration not stated)
- EC50 [5]: 0.531 µM (active)

SMILES: O=C(NCc1ccncc1)c1ccc(Br)o1
- IC50 (Coagulation factor XII): > 50 µM (inactive)

SMILES: CC1(C)COC(/C=C/c2ccc([N+](=O)[O-])cc2)=N1
- CC50 (Vero [1]): 12.4 µM (active)
- IC50 (Vero [2]): > 25 µM (active)
- CC50 (Vero [6]): 10.2 µM (active)

SMILES: Cn1cc(Cl)c(C(=O)Nc2nc3ccc([N+](=O)[O-])cc3s2)n1
- IC50 [7]: > 50 µM (inactive)
- IC50 [8]: 5.21 µM (active)

SMILES: O=S(=O)([N-]c1nc2ccccc2nc1-[n+]1ccn(Cc2ccccc2)c1)c1ccc(Cl)cc1
- AC50 [9]: 24.8 µM (active)
- IC50 (Coagulation factor XII): > 50 µM (inactive)

SMILES: c1cc2c(cc1C1CCCCC1)c1c3n2CCCNC3CCC1 (configuration not stated)
- EC50 [10]: 18 µM (active)
- EC50 [11]: 5.92 µM (active)
- EC50 [12]: 4.46 µM (active)
- IC50 [4]: 19.8 µM (active)
- EC50 [13]: > 120 µM (not active)
- IC50 [14]: > 20 µM (inactive)
- IC50 (Beta-galactosidase): > 66.6 µM (inactive)
- EC50 [15]: 71.1 µM (active)

SMILES: CCN(CC)c1c([N+](=O)[O-])c(=O)sc2ccccc12
- AC50 [16]: > 120 µM (inactive)

SMILES: CCC(=O)OCOc1ccc(/C=C2/CCC(CN(C)C)C2=O)cc1 (configuration not stated)
- IC50 [4]: 15.5 µM (active)
- IC50 [17]: > 80 µM (inactive)
- AC50 [18]: 2.85 µM (active)
- IC50 (Beta-galactosidase): > 66.6 µM (inactive)

SMILES: CN(C)c1cccc(C(=O)n2cc(C(=O)c3cc(F)ccc3O)cn2)c1
- IC50 (Coagulation factor XII): 12.4 µM (active)
- IC50 (Phospholipase A2): 9.78 µM (active)
- IC50 (Cysteine protease ATG4B): 7.59 µM (active)

SMILES: CC(=O)Nc1ccc(NC(=O)c2ccc(NC(=O)c3ccccc3)cc2)cc1
- IC50 [7]: > 50 µM (inactive)
- IC50 [8]: 6.5 µM (active)

SMILES: O=C1CCCc2ccccc2N1Cc1ccccc1Cl
- AC50 (Cytochrome P450 3A4): inconclusive

SMILES: Cc1ccc(OCc2cc(C(=O)N3C[C@H]4C[C@H]5C[C@@H](C4)C[C@H]3C5)no2)cc1C
- AC50 (HeLa): 151 µM (active)

SMILES: COc1cccc(CNC(=O)CCC2CCCN(Cc3cc(Cl)ccc3O)C2)c1 (configuration not stated)
- EC50 [5]: 2.11 µM (active)

SMILES: CCOC(=O)/C(C#N)=C\N(C)C
- AC50 (Cytochrome P450 3A4): inconclusive
- AC50 (Cytochrome P450 2C9): 39.8 µM (inconclusive)

SMILES: Cc1ccc(NC(=O)c2sc3nc(C)cc(C)c3c2N)cc1
- AC50 (HeLa): 213 µM (active)

SMILES: CCCCn1cnc2sc(-c3ccccc3)cc2c1=O
- AC50 (HeLa): 111 µM (active)

SMILES: O=[N+]([O-])c1cc2c(cc1/C=N/Nc1nc(O)c3ccccc3n1)OCO2
- IC50 [19]: 3.63 µM (active)
- IC50 [20]: 4.7 µM (active)
